Assay results reported in patent US10000450B2, “N,N-substituted 3-aminopyrrolidine compounds useful as monoamines reuptake inhibitors” (OTSUKA PHARMACEUTICAL CO., LTD., priority 2005, dated 2018).
Structures can show the parent of a compound that is named as a salt.

Key:
Format in all cases: biochemical
[1] = molecular target: T1, Norepinephrine (NE) uptake into rat brain synaptosome (hippocampus) (Rattus norvegicus, UniProt Q63380); test: Inhibitory activity on norepinephrine (NE) uptake into rat brain synaptosome; details: tritium-labeled NE 12 nM uptake, 10 min at 37° C., read-out: 50% inhibitory concentration
T1 construct: used as crude synaptosome fraction; from tissue; host or cells: rat (male Wistar) hippocampus, crude synaptosome fraction
T1 sequence (Q63380 1-617): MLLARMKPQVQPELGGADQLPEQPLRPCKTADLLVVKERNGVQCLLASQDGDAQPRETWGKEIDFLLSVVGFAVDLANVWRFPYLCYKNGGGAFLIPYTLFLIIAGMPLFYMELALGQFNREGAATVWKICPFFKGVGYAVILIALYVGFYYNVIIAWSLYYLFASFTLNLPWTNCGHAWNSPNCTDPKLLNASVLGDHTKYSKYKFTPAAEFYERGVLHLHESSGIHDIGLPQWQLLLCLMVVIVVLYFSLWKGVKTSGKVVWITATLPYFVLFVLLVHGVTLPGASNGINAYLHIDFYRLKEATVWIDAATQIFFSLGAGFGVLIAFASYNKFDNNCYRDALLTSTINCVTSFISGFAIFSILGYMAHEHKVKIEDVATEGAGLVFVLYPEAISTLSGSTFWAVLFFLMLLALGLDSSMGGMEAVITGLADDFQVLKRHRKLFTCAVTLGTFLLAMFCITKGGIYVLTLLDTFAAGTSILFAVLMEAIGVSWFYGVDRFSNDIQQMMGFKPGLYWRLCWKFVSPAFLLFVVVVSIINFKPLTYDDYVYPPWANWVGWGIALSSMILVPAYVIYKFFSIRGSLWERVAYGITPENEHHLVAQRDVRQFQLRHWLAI
Experimental: Pharmacological Test 2 Evaluation of Inhibitory Activity of Test Compound on Norepinephrine (NE) Uptake into Rat Brain Synaptosome
(§1) Male Wistar rats were decapitated and the brains were removed and the hippocampi were dissected. The separated hippocampi were homogenized in 20 volumes as weight of 0.32 M sucrose solution by a Potter-type homogenizer. The homogenate was centrifuged at 1000 g at 4° C. for 10 minutes, and the supernatant was then centrifuged at 20000 g at 4° C. for 20 minutes. The pellet was resuspended in incubation buffer (20 mM HEPES buffer (pH 7.4)) containing 10 mM glucose, 145 mM sodium chloride, 4.5 mM potassium chloride, 1.2 mM magnesium chloride, and 1.5 mM calcium chloride) and used as crude synaptosome fraction.
The uptake reaction mixture was suspended in final volume of 200 μl containing pargyline (final concentration of 10 μM) and sodium ascorbate (final concentration of 0.2 mg/ml) in each well of 96-well-round-bottom-plate.
(§2) Solvent, unlabeled NE, and serial diluted test compounds were added to each well, and synaptosome fraction of 1/10 volume of the final volume were added. After 10 minutes preincubation at 37° C., the uptake was initiated by the addition of tritium-labeled NE solution (final concentration of 12 nM) at 37° C. The uptake was stopped after 10 minutes by filtration under vacuum through a 96-well glass fiber filter plate. After washing the filter with cold physiological saline and drying up, Microscint-0 (Perkin-Elmer) was added, and remained radioactivity on the filter was measured.
(§3) The total uptake activity with only solvent was determined as 100%, and the nonspecific uptake activity with unlabeled NE (final concentration of 10 μM) was determined as 0%. The 50% inhibitory concentrations were calculated based on the concentrations of the test compounds and their inhibitory activities.

[2] = molecular target: T2, Serotonin (5-HT) uptake into rat brain synaptosome (frontal cortex) (Rattus norvegicus, UniProt P31652); test: Inhibitory activity on serotonin (5-HT) uptake into rat brain synaptosome; details: tritium-labeled 5-HT 8 nM uptake, 10 min at 37° C., read-out: 50% inhibittory concentration
T2 construct: used as crude synaptosome fractions; from tissue; host or cells: rat (male Wistar) frontal cortex, crude synaptosome fraction
T2 sequence (P31652 whole entry): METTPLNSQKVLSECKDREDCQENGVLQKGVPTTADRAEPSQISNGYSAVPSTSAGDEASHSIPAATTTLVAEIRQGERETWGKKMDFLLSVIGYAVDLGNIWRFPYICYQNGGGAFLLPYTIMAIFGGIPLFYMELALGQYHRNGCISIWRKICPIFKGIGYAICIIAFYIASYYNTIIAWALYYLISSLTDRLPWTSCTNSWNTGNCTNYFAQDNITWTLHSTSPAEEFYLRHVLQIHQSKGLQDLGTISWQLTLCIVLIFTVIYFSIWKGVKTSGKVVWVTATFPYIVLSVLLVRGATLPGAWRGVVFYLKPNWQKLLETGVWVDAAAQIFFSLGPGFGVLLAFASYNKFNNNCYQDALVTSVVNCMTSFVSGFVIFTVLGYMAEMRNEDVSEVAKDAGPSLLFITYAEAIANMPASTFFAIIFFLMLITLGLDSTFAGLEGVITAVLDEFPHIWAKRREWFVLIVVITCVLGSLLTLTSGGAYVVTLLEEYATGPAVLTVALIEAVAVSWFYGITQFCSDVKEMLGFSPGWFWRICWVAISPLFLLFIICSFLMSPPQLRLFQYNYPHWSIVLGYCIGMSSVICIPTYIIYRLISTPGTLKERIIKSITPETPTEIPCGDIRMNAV
Experimental: Pharmacological Test 1 Evaluation of Inhibitory Activity of Test Compound on Serotonin (5-HT) Uptake into Rat Brain Synaptosome
as §1, with “frontal cortices” for “hippocampi”, “fractions.” for “fraction.”
(§4) The uptake reaction mixture was suspended in a final volume of 200 μl containing pargyline (final concentration of 10 μM) and sodium ascorbate (final concentration of 0.2 mg/ml) in each well of 96-well-round-bottom-plate.
Solvent, unlabeled 5-HT, and serial diluted test compounds were added in each well, and synaptosome fraction of 1/10 volume of the final volume were added. After a 10 min preincubation at 37° C., the uptake was initiated by the addition of tritium-labeled 5-HT solution (final concentration of 8 nM) at 37° C. The uptake was stopped after 10 minutes by filtration under vacuum through a 96-well glass fiber filter plate. After washing the filter with cold physiological saline and drying up, Microscint-O (Perkin-Elmer) was added, and remained radioactivity on the filter was measured.
as §3, with “5-HT” for “NE”

[3] = molecular target: T3, Dopamine (DA) uptake into rat brain synaptosome (striatum) (Rattus norvegicus, UniProt P23977); test: Inhibitory activity on dopamine (DA) uptake into rat brain synaptosome; details: tritium labeled DA 2 nM uptake, 10 min at 37° C., read-out: 50% inhibitory concentration
T3 construct: used as crude synaptosome fraction; from tissue; host or cells: rat (male Wistar) striatum, crude synaptosome fraction
T3 sequence (P23977 whole entry): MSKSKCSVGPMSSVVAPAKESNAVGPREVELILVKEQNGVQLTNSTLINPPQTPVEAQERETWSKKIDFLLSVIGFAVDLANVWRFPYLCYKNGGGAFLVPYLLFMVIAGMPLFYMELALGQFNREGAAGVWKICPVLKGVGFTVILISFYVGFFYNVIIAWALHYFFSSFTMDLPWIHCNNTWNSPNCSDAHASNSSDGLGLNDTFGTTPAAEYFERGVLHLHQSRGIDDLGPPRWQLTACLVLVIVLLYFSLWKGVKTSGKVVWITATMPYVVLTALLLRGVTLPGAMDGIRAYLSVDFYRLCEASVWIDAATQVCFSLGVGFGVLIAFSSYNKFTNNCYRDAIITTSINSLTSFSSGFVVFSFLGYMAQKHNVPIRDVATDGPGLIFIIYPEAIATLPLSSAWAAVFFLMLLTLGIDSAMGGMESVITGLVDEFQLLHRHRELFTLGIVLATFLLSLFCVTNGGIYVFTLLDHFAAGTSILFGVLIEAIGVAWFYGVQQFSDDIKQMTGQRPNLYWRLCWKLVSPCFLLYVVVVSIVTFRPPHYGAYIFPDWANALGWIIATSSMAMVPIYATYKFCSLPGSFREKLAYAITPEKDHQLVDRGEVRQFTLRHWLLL
Experimental: Pharmacological Test 3 Evaluation of Inhibitory Activity of Test Compound on Dopamine (DA) into Rat Brain Synaptosome
as §1, with “striata” for “hippocampi”
as §4
as §2, with “unlabeled DA,” for “unlabeled NE,”, “added in” for “added to”, “After 10-min” for “After 10 minutes”, “of tritium labeled DA” for “of tritium-labeled NE”, “of 2” for “of 12”, “was added” for “was added,”
as §3, with “The” for “The total”, “DA” for “NE”

Structure (SMILES) | IC50 [1] [nM] | IC50 [2] [nM] | IC50 [3] [nM]
Cc1cc(N(c2ccccc2)[C@H]2CCNC2)ccc1F [Example 46] | – | – | 9.3
c1ccc(N(c2ccc3sccc3c2)[C@H]2CCNC2)cc1 [Example 116] | 0.1 | – | 8.9
Fc1ccc(N(c2cnc3ccccc3c2)[C@H]2CCNC2)cc1Cl [Example 149] | – | 1.2 | –
Cc1cc(N(c2cnc3ccccc3c2)[C@H]2CCNC2)ccc1F [Example 151] | – | 0.8 | –
Fc1ccc(N(c2ccccn2)[C@H]2CCNC2)cc1Cl [Example 154] | 0.2 | 0.8 | 9.2
Clc1ccc(N(c2ccccn2)[C@H]2CCNC2)cc1Cl [Example 188] | 0.1 | – | –
COc1cccc(N(c2ccc(F)c(Cl)c2)[C@H]2CCNC2)n1 [Example 223] | 0.2 | – | –
Fc1ccc(N(c2ccc(Cl)nc2)[C@H]2CCNC2)cc1Cl [Example 244] | 0.5 | – | –
Clc1ccc(N(c2cccnc2)[C@H]2CCNC2)cc1Cl [Example 256] | 0.1 | – | –
N#Cc1ccc(N(c2ccc(F)c(Cl)c2)[C@H]2CCNC2)cn1 [Example 268] | – | 0.8 | 6.5
Fc1ccc(N(c2ccsc2)[C@H]2CCNC2)cc1Cl [Example 278] | 0.3 | 2.2 | 34.7
c1cncc(N(c2ccc3sccc3c2)[C@H]2CCNC2)c1 [Example 294] | – | – | 24
Fc1ccc(N(C2CCCC2)[C@H]2CCNC2)cc1Cl [Example 306] | 0.8 | 1.4 | –
Cc1cc(N(c2cncc(F)c2)[C@H]2CCNC2)ccc1F [Example 895] | 0.5 | 3 | 38
Fc1ccc(N(c2ccc3ccsc3n2)[C@H]2CCNC2)cc1 [Example 899] | – | 0.7 | –
c1ccc(N(c2ccc3cnsc3c2)[C@H]2CCNC2)cc1 [Example 900] | 0.6 | 1.5 | –
Cn1c(=O)ccc2cc(N(c3ccc(F)c(Cl)c3)[C@H]3CCNC3)ccc21 [Example 912] | – | 1 | 30.2
Fc1ccc(N(c2ccc(Cl)c(Cl)c2)[C@H]2CCNC2)nc1 [Example 961] | 0.7 | 2.8 | 9.6
Clc1ccc(N(c2cnccn2)[C@H]2CCNC2)cc1Cl [Example 963] | 0.8 | 1 | 47.1
c1ccc2cc(N(c3ccsc3)[C@H]3CCNC3)ccc2c1 [Example 1000] | 0.4 | – | –
c1cc(N(c2ccc3sccc3c2)[C@H]2CCNC2)cs1 [Example 1002] | 0.1 | – | 32.9

The next lines start with the values.

IC50 [1] [nM] | IC50 [2] [nM] | IC50 [3] [nM] | Structure (SMILES)
0.6 | – | – | Clc1ccc(N(c2ccccc2)C2CCNC2)cc1Cl (stereo not drawn) [Example 1, (3,4-dichlorophenyl)phenylpyrrolidin-3-ylamine dihydrochloride]
– | 1.6 | – | Fc1ccc(N(CCCCOc2ccccn2)[C@H]2CCNC2)cc1Cl [Example 5, (3-chloro-4-fluorophenyl)-[4-(pyridin-2-yloxy)butyl]-(S)-pyrrolidin-3-ylamine difumarate]
– | 0.7 | – | CSc1ccc(N(c2ccccc2)[C@H]2CCNC2)cc1 [Example 19]
0.8 | – | – | Fc1ccc(N(c2ccccc2)[C@H]2CCNC2)cc1 [Example 20]
2.2 | – | – | Cc1ccc(N(c2ccccc2)[C@H]2CCNC2)cc1 [Example 22]
0.4 | – | 8.7 | Fc1ccc(N(c2ccccc2)[C@H]2CCNC2)cc1Cl [Example 44]
– | 0.6 | 9 | N#Cc1ccc(N(c2ccc(F)c(Cl)c2)[C@H]2CCNC2)cc1 [Example 73]
0.3 | – | – | Cc1ccc(N(c2cccc(F)c2)[C@H]2CCNC2)cc1Cl [Example 98]
0.4 | 0.8 | 32.5 | Fc1ccc(N(c2ccc3ccsc3c2)[C@H]2CCNC2)cc1 [Example 114]
0.2 | 0.6 | – | Fc1ccc(N(c2nccs2)[C@H]2CCNC2)cc1Cl [Example 131]
– | – | 3.8 | Fc1ccc(N(c2ccc(N3CCNCC3)cn2)[C@H]2CCNC2)cc1Cl [Example 200]
– | – | 4.3 | CCN1CCN(c2ccc(N(c3ccc(F)c(Cl)c3)[C@H]3CCNC3)nc2)CC1 [Example 201]
0.2 | – | – | Clc1ccc(N(c2cccnc2)[C@H]2CCNC2)cc1Cl [Example 242]
– | – | 8.2 | N#Cc1ccc(N(c2ccc(Cl)c(Cl)c2)[C@H]2CCNC2)cn1 [Example 270]
– | – | 30 | N#Cc1ccc(-c2cncc(N(c3ccc(F)c(Cl)c3)[C@H]3CCNC3)c2)cc1 [Example 272]
– | – | 32.9 | Clc1ccc(N(c2ccncc2)[C@H]2CCNC2)cc1Cl [Example 273]
0.1 | – | 30.6 | c1cncc(N(c2ccc3ccsc3c2)[C@H]2CCNC2)c1 [Example 289]
– | – | 48.6 | c1cc2cc(N(c3ccc4sccc4c3)[C@H]3CCNC3)ccc2s1 [Example 299]
– | – | 9.6 | c1cc2ccc(N(c3ccc4ccsc4c3)[C@H]3CCNC3)cc2s1 [Example 300]
0.3 | 2.6 | 9.4 | Fc1cncc(N(c2ccc(F)c(Cl)c2)[C@H]2CCNC2)c1 [Example 894]
0.9 | 2.5 | – | [O-][n+]1cccc(N(c2ccc(F)c(Cl)c2)[C@H]2CCNC2)c1 [Example 896]
– | 0.7 | – | Fc1ccc(N(c2ccc3cnsc3c2)[C@H]2CCNC2)cc1 [Example 901]
0.7 | 1.2 | – | Cc1cc2ccc(N(c3ccccc3)[C@H]3CCNC3)cc2s1 [Example 903]
0.8 | 0.8 | 6.5 | Fc1ccc(N(c2ccc3ncccc3c2)[C@H]2CCNC2)cc1Cl [Example 913]
– | 0.7 | – | O=C1CCc2ccc(N(c3ccc(F)cc3)[C@H]3CCNC3)cc2N1 [Example 917]
1 | 0.8 | 6.8 | Fc1ccc(N(c2ccc3cnsc3c2)[C@H]2CCNC2)cc1Cl [Example 930]
– | 1.8 | – | c1ccc(N(c2ccc3sccc3n2)[C@H]2CCNC2)cc1 [Example 934]
0.5 | – | 29.8 | Fc1cncc(N(c2ccc3sccc3c2)[C@H]2CCNC2)c1 [Example 951]
0.8 | – | 26 | Cn1ncc2ccc(N(c3ccc(F)c(Cl)c3)[C@H]3CCNC3)cc21 [Example 990]
0.1 | – | 16.4 | c1cc(N(c2ccc3ccsc3c2)[C@H]2CCNC2)cs1 [Example 1001]
